# Measurements published in publication PMC7763995 (Molecules, 2020).
# Like-named read-outs stand apart in the source and are kept apart here.
# Columns and labels:
# mouse brain homogenate [1] = experiment: Luminol chemiluminescence assay in mouse brain homogenate (TBHP-initiated); settings: compound concentration 20 µM; mice brain homogenate
# Description: (§1) The work was carried out in accordance with the EU Directive 2010/63/EU. Hybrid BDF1 mice (about 6 months old) were sacrificed by decapitation. Each brain was rapidly excised, frozen in liquid nitrogen, and stored at −80°C until use. The brains were thawed and homogenized using a Wisd WiseTis HG-15D homogenizer for 2 min in a buffer (0.01 M PBS, pH 7.4 or 0.1 M Tris-HCl, pH 7.4). Protein concentrations were determined by the Lowry method.
# Luminol-dependent chemiluminescence produced by mouse brain homogenates was measured using a 1250 Luminometer (LKB Wallac, Turku, Finland) according to the assay by Di Meo et al. with minor modifications. The reaction mixture consisted of mouse brain homogenate (protein concentration 0.1 mg/mL) in 0.1 M Tris-HCl (Sigma-Aldrich), pH 7.4, luminol (Sigma-Aldrich) (0.05 mM), TBHP (Sigma-Aldrich) (0.073 M) and tested compounds at a concentration of 20 μM. This was placed in a light-proof luminometer chamber and the background reading was recorded. All measurements were carried out at 37°C. The gain control was set to give a reading of 10 mV using a built-in standard. The free radical content in mouse brain homogenate was evaluated by the change in the light sum (the area under the kinetic curve of luminescence intensity for the entire luminescence time). All compounds were examined at least in triplicate. The effects of tested compounds were measured as the percentage decrease in the light sum relative to the control (a sample with no compound added).
# [2] = FRAP (ferric reducing antioxidant power) assay; settings: 20 µM, 1 h incubation; ratio of concentrations of Trolox and test compound with same effect
# Description: The FRAP (ferric reducing antioxidant power) assay proposed by Benzie and Strain [80, 81] was modified to be performed in 96-well microplates. The FRAP reagent contained 2.5 mL of 10 mM TPTZ (2,4,6-tris(2-pyridyl)-s-triazine (Sigma-Aldrich) solution in 40 mM HCl, 2.5 mL of 20 mM FeCl3 (Sigma-Aldrich) in distilled water and 25 mL of 0.3 M acetate buffer (pH 3.6). In 96-well microplates, 10 µL aliquots of the substance under investigation (compounds 7, 8 or reference substance) dissolved in DMSO (0.5 mM) were placed in quadruplicate. The FRAP reagent (240 µL) freshly prepared and warmed to 37°C was added to three of these samples, while the same volume of acetate buffer was added to the fourth one (blank). Consequently, the concentration of the substance in a plate was 20 µM. The absorbance at 600 nm was monitored spectrophotometrically with a FLUOStar OPTIMA microplate reader at 37°C for an hour with an interval of 5–10 min. Data in Table 2 are given for 1 h of incubation of compounds with FRAP reagent. The absorbances of the blanks and those of the mixture of 240 µL FRAP reagent plus 10 µL DMSO were subtracted from the absorbances of the samples at each time interval to calculate the absorbance change. Standard antioxidants Trolox and BHT dissolved in DMSO and analyzed as described above were used as reference compounds. A calibration curve with linear formula y = 0.03x (R^2 = 0.998, p < 0.0001) was obtained for Trolox solution in DMSO in the range 2.5–100 µM and the results were expressed as FRAP units (the values calculated as the ratio of the concentrations of Trolox and the test compound resulting in the same effect.)
# [3] = ABTS radical cation scavenging activity assay; settings: for IC50 / ABTS^•+-Scavenging Activity, TEAC: 1 h incubation; for ABTS^•+-Scavenging Activity, TEAC: ratio of slopes test compound/Trolox
# Description: Radical scavenging activity of the compounds was assessed using the ABTS radical decolorization assay with some modifications. ABTS was purchased from Tokyo Chemical Industry Co., Ltd. (Tokyo, Japan), potassium persulfate (dipotassium peroxodisulfate), Trolox (6-hydroxy-2,5,7,8-tetramethychroman-2-carboxylic acid), and HPLC-grade ethanol were obtained from Sigma-Aldrich. Aqueous solutions were prepared using deionized water.
# The solution of cation radical ABTS^•+ was produced by incubation of ABTS with potassium persulfate in deionized water for 12–16 h at room temperature in the dark. Radical scavenging capacity of the compounds was analyzed by mixing 10 μL of compound with 240 μL of ABTS^•+ working solution in ethanol (100 μM final concentration). The reaction was monitored for an hour with an interval of 5–10 min. Data are given for 1 h of incubation of compounds with ABTS^•+. The reduction in absorbance was measured spectrophotometrically at 734 nm using a xMark microplate UV/VIS microplate spectrophotometer (Bio-Rad, Hercules, CA, USA).
# Ethanol blanks were run in each assay. Values were obtained from three replicates of each sample and three independent experiments. Standard antioxidants Trolox and BHT were used as reference compounds.
# Antioxidant capacity as Trolox equivalent (TEAC) values was determined as the ratio between the slopes obtained from the linear correlation of the ABTS radical absorbance with the concentrations of tested compounds and Trolox. […] The compounds were tested in the concentration range of 0.1–100 µM.
# mouse brain homogenate [4] = experiment: TBARS assay, spontaneous lipid peroxidation in mouse brain homogenate; settings: read-out: Inhibition of Spontaneous Lipid Peroxidation in Mice Brain Homogenate, TBARS Assay, IC50
# Description: as §1
# The procedure was performed in accordance with the method of Ohkawa et al. with minor modifications. Briefly, mouse brain homogenate (protein concentration 1 mg/mL) in PBS (0.1 M, pH 7.4) was incubated for 30 min at 37°C with tested conjugates, and the reaction was terminated by addition of 0.4 mL of 17% (w/v) trichloroacetic acid (Sigma-Aldrich). Following centrifugation for 20 min at 1300× g, 0.5 mL of 0.8% (w/v) of TBA (Sigma-Aldrich) was added to 1 mL of supernatant, heated for 30 min at 95°C and then cooled to RT. The optical density of the TBARS, which corresponds to the produced MDA, was measured at 532 nm against a blank using an Agilent Cary 60 UV-Vis spectrophotometer (Agilent, Santa Clara, CA, USA). The MDA concentration was calculated using an extinction coefficient of 1.56 × 10^5 M^−1cm^−1. Trolox and BHT were used as reference antioxidants. Compounds were dissolved in DMSO (Sigma-Aldrich) and tested in a concentration range 0.01–100 μM. All compounds were examined at least in triplicate.
# Porcine liver CES = experiment: In vitro CES inhibition, 4-NPA substrate; type: biochemical; settings: compound concentration 20 µM; n.a. = not active
# Description: (§2) Measurements were performed with a FLUOStar Optima microplate reader (BMG Labtech, Ortenberg, Germany). Compounds were dissolved in DMSO, the incubation mixture contained 2% solvent.
# Equine serum BChE = molecular target: T1, Equine serum BChE (Equus caballus, UniProt P81908); experiment: biochemical; settings: for Selectivity for BChE: IC50 AChE / IC50 BChE
# T1 construct: equine serum BChE; purchased Sigma-Aldrich; host or cells: equine serum
# T1 sequence (P81908 whole entry): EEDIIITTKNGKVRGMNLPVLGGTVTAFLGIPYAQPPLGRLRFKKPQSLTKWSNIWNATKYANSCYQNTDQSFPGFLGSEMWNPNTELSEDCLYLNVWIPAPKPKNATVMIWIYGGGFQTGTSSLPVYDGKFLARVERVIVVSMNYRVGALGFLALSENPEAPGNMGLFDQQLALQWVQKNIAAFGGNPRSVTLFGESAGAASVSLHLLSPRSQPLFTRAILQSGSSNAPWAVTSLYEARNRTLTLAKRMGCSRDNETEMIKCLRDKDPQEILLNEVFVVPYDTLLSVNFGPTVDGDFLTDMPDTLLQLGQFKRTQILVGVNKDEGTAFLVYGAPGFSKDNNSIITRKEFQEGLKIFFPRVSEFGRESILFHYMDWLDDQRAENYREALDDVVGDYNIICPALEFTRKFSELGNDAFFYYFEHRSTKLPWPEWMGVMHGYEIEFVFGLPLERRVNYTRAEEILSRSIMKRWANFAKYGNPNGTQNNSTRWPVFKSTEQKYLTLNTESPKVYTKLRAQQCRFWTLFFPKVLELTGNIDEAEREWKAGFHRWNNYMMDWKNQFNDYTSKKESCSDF
# Description: as §2
# Human erythrocyte AChE = molecular target: T2, Human erythrocyte AChE (Homo sapiens, UniProt P22303); experiment: biochemical
# T2 construct: AChE from human erythrocytes was used; purchased Sigma-Aldrich; host or cells: human erythrocytes
# T2 sequence (P22303 32-617 isoform P22303-2 limits assumed): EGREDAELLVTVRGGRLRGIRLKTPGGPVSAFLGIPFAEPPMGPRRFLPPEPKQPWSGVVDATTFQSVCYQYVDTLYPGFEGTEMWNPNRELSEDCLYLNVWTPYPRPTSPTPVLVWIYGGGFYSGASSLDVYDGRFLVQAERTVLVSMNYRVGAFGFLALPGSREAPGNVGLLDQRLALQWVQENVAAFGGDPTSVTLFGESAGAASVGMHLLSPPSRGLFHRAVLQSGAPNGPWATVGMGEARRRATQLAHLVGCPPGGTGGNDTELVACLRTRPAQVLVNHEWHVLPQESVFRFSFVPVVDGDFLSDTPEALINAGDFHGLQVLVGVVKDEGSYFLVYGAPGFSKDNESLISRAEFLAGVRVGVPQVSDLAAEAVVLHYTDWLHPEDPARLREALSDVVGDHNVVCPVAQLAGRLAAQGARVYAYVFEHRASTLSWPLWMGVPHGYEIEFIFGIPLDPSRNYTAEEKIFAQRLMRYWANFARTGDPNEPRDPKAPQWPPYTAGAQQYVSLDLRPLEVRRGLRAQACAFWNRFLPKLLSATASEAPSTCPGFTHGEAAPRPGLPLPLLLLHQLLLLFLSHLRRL
# Description: as §2
# EeAChE PAS = molecular target: T3, EeAChE PAS (Electrophorus electricus, UniProt O42275); type: binding; settings: compound concentration 20 µM
# T3 construct: Electric eel AChE (EeAChE, type VI-S, lyophilized powder); purchased Sigma-Aldrich type VI-S; host or cells: electric eel
# T3 sequence (O42275 24-633): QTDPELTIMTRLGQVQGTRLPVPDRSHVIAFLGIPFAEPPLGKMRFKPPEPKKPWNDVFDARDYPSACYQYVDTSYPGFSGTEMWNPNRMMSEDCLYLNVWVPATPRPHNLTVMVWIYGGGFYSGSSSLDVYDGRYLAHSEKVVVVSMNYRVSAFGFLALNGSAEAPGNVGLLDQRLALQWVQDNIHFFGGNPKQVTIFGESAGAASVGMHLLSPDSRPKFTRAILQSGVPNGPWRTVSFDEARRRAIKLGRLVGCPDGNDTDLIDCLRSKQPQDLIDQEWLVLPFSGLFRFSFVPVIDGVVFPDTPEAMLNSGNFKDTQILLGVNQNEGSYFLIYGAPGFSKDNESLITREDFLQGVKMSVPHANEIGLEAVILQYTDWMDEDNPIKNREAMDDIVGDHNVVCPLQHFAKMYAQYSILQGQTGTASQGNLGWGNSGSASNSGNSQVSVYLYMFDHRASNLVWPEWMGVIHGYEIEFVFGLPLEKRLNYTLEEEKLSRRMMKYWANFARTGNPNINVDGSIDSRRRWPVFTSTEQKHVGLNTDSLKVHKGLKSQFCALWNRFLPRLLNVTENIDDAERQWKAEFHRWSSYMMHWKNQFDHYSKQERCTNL
# Description: Electric eel AChE (EeAChE, type VI-S, lyophilized powder, Sigma-Aldrich, Saint Louis, MO, USA) was used owing to its high degree of purification, high activity, and lower cost compared to human AChE.
# The blank contained propidium iodide of the same concentration in 1 mM Tris-HCl buffer pH 8.0. The measurements were carried out in triplicate on a FLUOStar Optima microplate reader, and the results were calculated by formula (1):% Displacement = 100 − (IFAChE+ Propidium + inhibitor / IFAChE + Propidium) × 100(1) where IFAChE + Propidium is the fluorescence intensity of the propidium associated with AChE in the absence of the test compound (taken as 100%), and IFAChE + Propidium + inhibitor is the fluorescence intensity of the propidium associated with AChE in the presence of the test compound.
# [5] = mean ± SEM, n = 3, n.a. = not active, read-out: Equine Serum BChE, IC50
# [6] = mean ± SEM, n = 3, n.a. = not active, read-out: Human Erythrocyte AChE, IC50
SMILES,"Radical Scavenging Capacity in Luminol Chemiluminescence Assay, Luminescence Inhibition, % (mouse brain homogenate [1]) [%]","Ferric Reducing Antioxidant Power, FRAP Units [2]",IC50 [3] [µM],"ABTS^•+-Scavenging Activity, TEAC [3]",IC50 (mouse brain homogenate [4]) [µM],"Porcine Liver CES, (%) inhibition (Porcine liver CES)",Selectivity for BChE (Equine serum BChE),IC50 (Equine serum BChE; [5]) [nM],IC50 (Human erythrocyte AChE; [6]) [µM],Displacement of Propidium from EeAChE PAS (%) (EeAChE PAS),Time of maximum binding of the ABTS radical [3] [min],IC50 (Equine serum BChE) [nM],IC50 (Human erythrocyte AChE) [µM]
"Cc1cc(C(C)(C)C)c(O)c(C(C)(C)C)c1 [BHT, butylated hydroxytoluene, reference compound]",72.0 ± 2.6,1.76 ± 0.07,22.4 ± 1.4,0.98 ± 0.03,6.89 ± 0.26,,,,,,,,
"O=[N+]([O-])c1ccc(OP(=O)(O)Oc2ccc([N+](=O)[O-])cc2)cc1 [BNPP, bis-4-nitrophenyl phosphate, reference compound]",,,,,,92.1 ± 1.8 ^3%,,,,,,,
"CC(C)(C)c1cc(C=NCCNc2c3c(nc4ccccc24)CCC3)cc(C(C)(C)C)c1O [Compound 7a, 2,6-Di-tert-butyl-4-{[2-(2,3-dihydro-1H-cyclopenta[b]quinolin-9-ylamino)-ethylimino]-methyl}-phenol]",94.0 ± 0.2,0.51 ± 0.03,22.3 ± 1.5,,19.6 ± 0.8,26.1 ± 0.7%,2.5,1920 ± 110,4.86 ± 0.01,18.1 ± 1.6,,,
"CC(C)(C)c1cc(C=NCCNc2c3c(nc4ccccc24)CCCC3)cc(C(C)(C)C)c1O [Compound 7b, 2,6-Di-tert-butyl-4-{[2-(1,2,3,4-tetrahydro-acridin-9-ylamino)-ethylimino]-methyl}-phenol]",95.0 ± 0.2,0.58 ± 0.03,17.1 ± 1.4,1.13 ± 0.05,7.21 ± 0.62,28.6 ± 1.6%,3.7,1610 ± 40,5.98 ± 0.13,18.2 ± 1.6,,,
"CC(C)(C)c1cc(C=NCCNc2c3c(nc4ccccc24)CCCCCC3)cc(C(C)(C)C)c1O [Compound 7d, 2,6-Di-tert-butyl-4-{[2-(6,7,8,9,10,11-hexahydro-cycloocta[b]quinolin-12-ylamino)-ethylimino]-methyl}-phenol]",95.0 ± 0.2,0.57 ± 0.02,17.8 ± 1.7,1.12 ± 0.05,14.8 ± 1.3,20.4 ± 1.6%,10.5,4270 ± 260,45 ± 5.7,17.1 ± 1.8,,,
"CC(C)(C)c1cc(CNCCNc2c3c(nc4ccccc24)CCC3)cc(C(C)(C)C)c1O [Compound 8a, 2,6-Di-tert-butyl-4-{[2-(2,3-dihydro-1H-cyclopenta[b]quinolin-9-ylamino)-ethylamino]-methyl}-phenol]",95.0 ± 0.1,0.77 ± 0.02,12.7 ± 1.1,1.39 ± 0.05,6.23 ± 0.33,19.6 ± 1.3%,5.4,,,16.4 ± 1.4,5,652 ± 5,3.5 ± 0.33
"Cc1c(C)c2c(c(C)c1O)CCC(C)(C(=O)O)O2 (stereo not drawn) [Trolox, 6-hydroxy-2,5,7,8-tetramethychroman-2-carboxylic acid, reference compound]",88.0 ± 1.0,1.0,20.1 ± 1.2,1.0,91.8 ± 0.3,,,,,,,,
